Assay results: US20020198254A1, “Polyamide analogs” (priority 2000, published 2002)
In brackets after ≈: the same amount, converted by molar mass. Read-outs that look alike come from different tables or passages of the source.

Tests used:
Type in all cases: cell-based
Aspergillus fumigatus = assay: MIC assay, filamentous fungi A. fumigatus; details: 48 h at 35C, no visible growth; for MIC: Aspergillus fumigatus
WST-CEM T-cell line = assay: Toxicity screen on WST-CEM T-cell line
Protocol: Toxicity screen was done on a WST-CEM T-cell line and the minimum percent verses a no drug control was measured.

E coli = assay: MIC assay, E coli
Protocol: (§1) These assays are adapted from NCCLS protocols M7-A4 and M27-A (NCCLS vol 17:9 and vol 17:2) as modified by Sandven, S. Clin. Micro. (1999) 37:12, p.3856-3859. MIC values for Aspergillus fumigatus were determined using NCCLS protocol M38-P.
(§2) All compounds were dissolved in 100% DMSO to a stock concentration of 10 mM and use fresh or stored at −80° C. Stock compounds were kept frozen until needed and used freshly with no more then one freeze-thaw cycle. When used for test purposes, compounds were diluted in the appropriate media depending on the organism being tested.
(§3) For yeast and aspergillus species, seven 1:2 serial dilutions of compound in appropriate media buffered with MOPS at pH 7.0 were prepared such that the final starting test compound concentrations were 50.0 uM for yeast and 50 uM aspergillus species. For bacteria, dilutions were made in growth media used for the particular bacteria being tested.
(§4) Inoculums are made in the same manner as yeast except all dilutions are made in normal saline, with a final dilution of 1:200 and an inoculum of 10 μL. VRE are vancomycin resistant enterococci, BM4147 and UCD-3 represent two different sources of VRE. MRSA are […] resistant Staphylococcus Aureus.

[1] = test system: MRSA (methylacillin resistant Staphylococcus Aureus); assay: MIC assay, MRSA; details: for MIC: Staphylococcus aureus, MRSA
Protocol: as §1, §2, §3, §4

[2] = test system: VRE-UCD3 (vancomycin resistant enterococci); assay: MIC assay, VRE strain UCD-3; details: 25 μg/mL Vancomycin - 24 h; for MIC: Enterococcus, VRE, read-out: MIC Assay VRE Strains: UCD-3 van25
Protocol: as §1, §2, §3, §4

[3] = test system: VRE-BM4147 (vancomycin resistant enterococci); assay: MIC assay, VRE strain BM4147; details: 25 μg/mL Vancomycin - 24 h; for MIC: Enterococcus, VRE, read-out: MIC Assay VRE Strains: BM4147 van25
Protocol: as §1, §2, §3, §4

Candida albicans = assay: MIC assay, yeast C. albicans; details: RPMI, 48 h, Alamar Blue; for MIC: Candida albicans
Bacillus cereus = assay: MIC assay, B. cereus; details: CAMHB, 16 h; for MIC: Bacillus cereus, read-out: MIC Assay Other Strains: B. cereus
Protocol: as §1, §2, §3, §4

Staphylococcus aureus = assay: MIC assay, S. aureus; details: CAMHB, 16 h
Protocol: as §1, §2, §3, §4

Pseudomonas aeruginosa = assay: MIC assay, P. aeruginosa; details: CAMHB, 16 h
Protocol: as §1, §2, §3, §4

[4] = WST-CEM T-cell line, ND = no drug control

Row | Compound | MIC (Aspergillus fumigatus) | CEM: toxicity screen, minimum percent verses a no drug control (WST-CEM T-cell line; [4]) | MIC (E coli) | MIC [1] | MIC [2] | MIC [3] | MIC (Candida albicans) | MIC Assay A fumigatus (Aspergillus fumigatus) | MIC Assay E coli (E coli) | MIC Assay MRSA [1] | MIC Assay VRE Strains: UCD-3 van25 [2] | MIC Assay Other Strains: B. cereus (Bacillus cereus) | MIC Assay VRE Strains: BM4147 van25 [3] | MIC Assay C. Albicans (Candida albicans) | MIC (Bacillus cereus) | CEM: toxicity screen, minimum percent verses a no drug control (WST-CEM T-cell line) | MIC Assay Other Strains: S. aureus (Staphylococcus aureus) | MIC Assay Other Strains: P. aeruginosa (Pseudomonas aeruginosa)
1 | O=C(NC1CCC(NC(=O)c2cc(NC(=O)C3CCCN3)cn2CC2CC2)CC1)c1cc(NC(=O)C2CCCN2)cn1CC1CC1 (stereo not drawn) [Compound 171, Bis-trans-1,4-[4-(pyrrolidine-2-carbonyl-amino)-1-cyclopropylmethyl-1H-pyrrol-2-yl-carbonylamino]cyclohexane] | > 50 µM | 91.1% ND | > 45.5 µM | > 45.5 µM | > 45.5 µM | > 45.5 µM | > 44.4 µM |  |  |  |  |  |  |  |  |  |  | 
2 | CC(C)CCn1cc(NC(=O)CN)cc1C(=O)Nc1ccc(NC(=O)c2cc(NC(=O)CN)cn2CCC(C)C)cc1 [Compound 188a] |  | 6.9% ND |  |  |  |  |  | >50 µM | 22.7 µM (≈ 13.1 µg/mL) | 11.4 µM (≈ 6.6 µg/mL) | 11.4 µM | 22.7 µM (≈ 13.1 µg/mL) | 11.4 µM | >44.4 µM |  |  |  | 
3 | CC(C)CCn1cc(NC(=O)CNC(=N)N)cc1C(=O)Nc1ccc2ccc(NC(=O)c3cc(NC(=O)CNC(=N)N)cn3CCC(C)C)cc2c1 [Compound 189b] | 3.1 µM (≈ 2.21 µg/mL) | 10.2% ND | 45.5 µM (≈ 32.4 µg/mL) |  | 5.7 µM |  |  |  |  |  |  |  |  |  | 2.8 µM (≈ 2 µg/mL) |  |  | 
4 | N=C(N)NCC(=O)Nc1cc(C(=O)NCCNC(=O)c2cc(NC(=O)CNC(=N)N)cn2CC2CC2)n(CC2CC2)c1 [Compound 174] | > 50 µM | 92.9% ND | > 45.5 µM | > 45.5 µM | > 45.5 µM | > 45.5 µM | > 44.4 µM |  |  |  |  |  |  |  |  |  |  | 
5 | CC(C)C(N)C(=O)Nc1cc(C(=O)NCCNC(=O)c2cc(NC(=O)C(N)C(C)C)cn2CC2CC2)n(CC2CC2)c1 (stereo not drawn) [Compound 170, Bis-1,2-[4-(2-amino-3-methyl-butyrylamino)-1-cyclopropylmethyl-1H-pyrrol-2-yl-carbonylamino]-ethane] |  |  |  |  |  |  |  | >50 µM | >45.5 µM | >45.5 µM | >45.5 µM |  | >45.5 µM | >44.4 µM |  | 90.0% ND |  | 
6 | Cn1cc(NC(=O)CCCNC(=N)N)cc1C(=O)Nc1ccc2[nH]c(NC(=O)c3cc(NC(=O)CCCNC(=N)N)cn3C)nc2c1 [Compound 81] |  |  |  |  |  |  |  |  |  |  | >45.5 µM | 5.7 µM (≈ 3.69 µg/mL) | >45.5 µM | 22.2 µM (≈ 14.4 µg/mL) |  |  | 45.5 µM (≈ 29.4 µg/mL) | >45.5 µM
7 | NCCCC(N)C(=O)N1CCCC1C(=O)Nc1cc(C(=O)NC2CCC(NC(=O)c3cc(NC(=O)C4CCCN4C(=O)C(N)CCCN)cn3CC3CC3)CC2)n(CC2CC2)c1 (stereo not drawn) [Compound 172, Bis-trans-1,4-{[4-(2,5-diamino-pentanoyl)pyrrolidine-2-carbonyl-amino]-1-cyclopropylmethyl-1H-pyrrol-2-yl-carbonylamino}cyclohexane] |  |  |  |  |  |  |  | >50 µM | >45.5 µM | >45.5 µM | >45.5 µM |  | >45.5 µM | >44.4 µM |  | 25.5% ND |  | 
8 | 1,5-bis-{4-[(NH2(CH2)3CONH)-1-methyl-1H-pyrrol-2-yl-carbonylamino]-benzimidazole [Compound 78] |  |  |  |  |  |  |  |  |  |  | >45.5 µM | 22.7 µM | >45.5 µM |  |  |  | 45.5 µM | >45.5 µM
9 | CC(C)CCn1cc(NC(=O)CN)cc1C(=O)Nc1ccc2ccc(NC(=O)c3cc(NC(=O)CN)cn3CCC(C)C)cc2c1 [Compound 188b] |  | 9.2% ND |  |  |  |  |  | >50 µM | 22.7 µM (≈ 14.3 µg/mL) |  |  | 22.7 µM (≈ 14.3 µg/mL) |  | 22.2 µM (≈ 14 µg/mL) |  |  |  | 
10 | CC(C)CCn1cc(NC(=O)CNC(=N)N)cc1C(=O)Nc1ccc(NC(=O)c2cc(NC(=O)CNC(=N)N)cn2CCC(C)C)cc1 [Compound 189a] | 12.5 µM (≈ 8.28 µg/mL) | 7.7% ND | 11.4 µM (≈ 7.56 µg/mL) |  | 11.4 µM | 11.4 µM | 22.2 µM (≈ 14.7 µg/mL) |  |  |  |  |  |  |  | 2.8 µM (≈ 1.86 µg/mL) |  |  | 
11 | 1,5-bis-{4-[(NH2(CH2)2CONH)-1-methyl-1H-pyrrol-2-yl-carbonylamino]-benzimidazole [Compound 77] |  |  |  |  |  |  |  |  |  |  | >45.5 µM | 22.7 µM | >45.5 µM | >44.4 µM |  |  | 45.5 µM | >45.5 µM
12 | NCC(=O)Nc1cc(C(=O)NCCNC(=O)c2cc(NC(=O)CN)cn2CC2CC2)n(CC2CC2)c1 [Compound 169, Bis-1,2-[4-(2-amino-acetylamino)-1-cyclopropylmethyl-1H-pyrrol-2-yl-carbonylamino]-ethane] | > 50 µM | 100% ND | 45.5 µM (≈ 22.7 µg/mL) | > 45.5 µM | > 45.5 µM | > 45.5 µM | > 44.4 µM |  |  |  |  |  |  |  | > 45.5 µM |  |  | 
13 | Cn1cc(NC(=O)CNC(=N)N)cc1C(=O)Nc1ccc2[nH]c(NC(=O)c3cc(NC(=O)CNC(=N)N)cn3C)nc2c1 [Compound 79] |  |  |  |  |  |  |  |  |  |  | 11.4 µM | 11.4 µM (≈ 6.73 µg/mL) | 45.5 µM |  |  |  | >45.5 µM | >45.5 µM
14 | CC/N=C(/NCCN(C)C)Nc1cc(C(=O)Nc2ccc(NC(=O)c3cc(N/C(=N/CC)NCCN(C)C)cn3CCC(C)C)cc2)n(CCC(C)C)c1 [Compound 191] | 12.5 µM (≈ 9.34 µg/mL) | 3.7% ND | 22.7 µM (≈ 17 µg/mL) |  | 11.4 µM |  | 11.1 µM (≈ 8.29 µg/mL) |  |  |  |  |  |  |  | 5.7 µM (≈ 4.26 µg/mL) |  |  | 
15 | 1,5-bis-{4-[(NH2CH2CONH)-1-methyl-1H-pyrrol-2-yl-carbonylamino]-benzimidazole [Compound 76] |  |  |  |  |  |  |  |  |  |  | >45.5 µM | >45.5 µM | >45.5 µM | >44.4 µM |  |  | >45.5 µM | >45.5 µM
16 | Cn1cc(NC(=O)CCNC(=N)N)cc1C(=O)Nc1ccc2[nH]c(NC(=O)c3cc(NC(=O)CCNC(=N)N)cn3C)nc2c1 [Compound 80] |  |  |  |  |  |  |  |  |  |  | >45.5 µM | 5.7 µM (≈ 3.53 µg/mL) | >45.5 µM | >44.4 µM |  |  | >45.5 µM | >45.5 µM
17 | NC(Cc1c[nH]cn1)C(=O)Nc1cc(C(=O)NC2CCC(NC(=O)c3cc(NC(=O)C(N)Cc4c[nH]cn4)cn3CC3CC3)CC2)n(CC2CC2)c1 (stereo not drawn) [Compound 173, Bis-trans-1,4-{4-[2-amino-3-(1H-imidazol-4-yl)propyonylamino]-1-cyclopropylmethyl-1H-pyrrol-2-yl-carbonylamino]cyclohexane] |  |  |  |  |  |  |  | >50 µM | >45.5 µM | >45.5 µM | >45.5 µM |  | >45.5 µM | >44.4 µM |  | 87.2% ND |  | 
